According to ChEMBL document CHEMBL1275606, “Novel chromosome-encoded CTX-M-78 beta-lactamase from a Kluyvera georgiana clinical isolate as a putative origin of CTX-M-25 subgroup” (2010):
In brackets after ≈: the same amount, converted by molar mass.

Columns and labels:
Assay type in all cases: functional
Escherichia coli [1] = assay: Antimicrobial activity against Escherichia coli TOP10F' by […]
Kluyvera georgiana [2] = assay: Antimicrobial activity against Kluyvera georgiana 14751 expressing beta-lactamase CTX-M-78 obtained from bloodstream of patient by […]
Escherichia coli [3] = assay: Antimicrobial activity against Escherichia coli TOP10F' transformant harboring beta-lactamase CTX-M-78 by […]
Kluyvera georgiana [4] = assay: Antimicrobial activity against Kluyvera georgiana 14751 expressing beta-lactamase CTX-M-78 obtained from bloodstream of patient by […] in presence of beta-lactamase inhibitor clavulanic acid

CC(C)(O/N=C(\C(=O)N[C@@H]1C(=O)N2C(C(=O)[O-])=C(C[n+]3ccccc3)CS[C@H]12)c1csc(N)n1)C(=O)O [CEFTAZIDIME]
MIC (Escherichia coli [1]): 0.125 µg/mL (≈ 0.229 µM) | MIC (Kluyvera georgiana [2]): 0.063 µg/mL (≈ 0.115 µM) | MIC (Escherichia coli [3]): 0.25 µg/mL (≈ 0.457 µM)

CO/N=C(\C(=O)N[C@@H]1C(=O)N2C(C(=O)[O-])=C(C[N+]3(C)CCCC3)CS[C@H]12)c1csc(N)n1 [CEFEPIME]
MIC (Escherichia coli [1]): 0.016 µg/mL (≈ 0.0333 µM) | MIC (Kluyvera georgiana [2]): 0.032 µg/mL (≈ 0.0666 µM) | MIC (Escherichia coli [3]): 0.5 µg/mL (≈ 1.04 µM)

CC(=O)OCC1=C(C(=O)O)N2C(=O)[C@@H](NC(=O)Cc3cccs3)[C@H]2SC1 [CEPHALOTHIN]
MIC (Escherichia coli [1]): 2 µg/mL (≈ 5.04 µM) | MIC (Kluyvera georgiana [2]): 8 µg/mL (≈ 20.2 µM) | MIC (Escherichia coli [3]): 256 µg/mL (≈ 646 µM)

CCn1cc(C(=O)O)c(=O)c2ccc(C)nc21 [NALIDIXIC ACID]
MIC (Kluyvera georgiana [2]): 128 µg/mL (≈ 551 µM) | MIC (Escherichia coli [3]): 2 µg/mL (≈ 8.61 µM)

CO[C@@]1(NC(=O)Cc2cccs2)C(=O)N2C(C(=O)O)=C(COC(N)=O)CS[C@@H]21 [CEFOXITIN]
MIC (Escherichia coli [1]): 2 µg/mL (≈ 4.68 µM) | MIC (Kluyvera georgiana [2]): 1 µg/mL (≈ 2.34 µM) | MIC (Escherichia coli [3]): 2 µg/mL (≈ 4.68 µM)

CO/N=C(\C(=O)N[C@@H]1C(=O)N2C(C(=O)O)=C(COC(C)=O)CS[C@H]12)c1csc(N)n1 [CEFOTAXIME]
MIC (Escherichia coli [1]): ≤ 0.016 µg/mL | MIC (Kluyvera georgiana [2]): 0.032 µg/mL (≈ 0.0703 µM) | MIC (Escherichia coli [3]): 1 µg/mL (≈ 2.2 µM)

C[C@H]1[C@H](NC(=O)/C(=N\OC(C)(C)C(=O)O)c2csc(N)n2)C(=O)N1S(=O)(=O)O [AZTREONAM]
MIC (Kluyvera georgiana [2]): ≤ 0.016 µg/mL | MIC (Escherichia coli [3]): 0.5 µg/mL (≈ 1.15 µM)

CC1(C)S[C@@H]2[C@H](NC(=O)[C@H](N)c3ccccc3)C(=O)N2[C@H]1C(=O)O [AMPICILLIN]
MIC (Kluyvera georgiana [2]): 256 µg/mL (≈ 733 µM) | MIC (Kluyvera georgiana [4]): 4 µg/mL | MIC (Escherichia coli [3]): 256 µg/mL (≈ 733 µM)

NC[C@H]1O[C@H](O[C@H]2[C@H](O)[C@@H](O[C@H]3O[C@H](CO)[C@@H](O)[C@H](N)[C@H]3O)[C@H](N)C[C@@H]2N)[C@H](O)[C@@H](O)[C@@H]1O [KANAMYCIN]
MIC (Escherichia coli [1]): 1 µg/mL (≈ 2.06 µM) | MIC (Kluyvera georgiana [2]): 16 µg/mL (≈ 33 µM) | MIC (Escherichia coli [3]): 256 µg/mL (≈ 528 µM)

CN(C)[C@@H]1C(O)=C(C(N)=O)C(=O)[C@@]2(O)C(O)=C3C(=O)c4c(O)cccc4[C@@](C)(O)[C@H]3C[C@@H]12 [TETRACYCLINE]
MIC (Kluyvera georgiana [2]): ≤ 0.5 µg/mL | MIC (Escherichia coli [3]): 256 µg/mL (≈ 576 µM)

GENTAMICIN
MIC (Kluyvera georgiana [2]): 64 µg/mL | MIC (Escherichia coli [3]): < 0.5 µg/mL
